Target: human GPR119 (Homo sapiens (Human), UniProt Q8TDV5)
Assay: AlphaScreen cAMP assay in Min-6/hGPR119 cells (GPR119 activation, intracellular cAMP)
Format: cell-based
Details: MIN6 cells stably transfected with human GPR119; 45 minutes' incubation at RT; AlphaScreen cAMP Assay Kit
In short: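 MIN6 cells stably expressing human GPR119 plated 10000 cells/well and held 24 h at 37° C. Compounds applied in stimulating buffer, pH 7.4, with 0.5 mM IBMX, 0.1% BSA, 1% DMSO final, for 45 min at RT. Intracellular cAMP read by AlphaScreen.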

human GPR119, sequence (Q8TDV5 whole entry): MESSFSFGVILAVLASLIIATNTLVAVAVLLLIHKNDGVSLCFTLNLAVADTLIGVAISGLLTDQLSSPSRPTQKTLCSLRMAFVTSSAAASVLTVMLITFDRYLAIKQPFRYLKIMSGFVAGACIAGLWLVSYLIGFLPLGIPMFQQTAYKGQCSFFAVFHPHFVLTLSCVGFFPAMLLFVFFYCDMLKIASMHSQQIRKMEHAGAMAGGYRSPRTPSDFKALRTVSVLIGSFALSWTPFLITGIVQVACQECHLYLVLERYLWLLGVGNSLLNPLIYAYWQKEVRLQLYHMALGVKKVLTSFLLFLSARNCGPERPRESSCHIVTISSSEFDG

| SMILES | EC50 [µM] |
| --- | --- |
| CCC1CC(=O)NN=C1c1ccc2nc(-c3cccc(OCc4ccccn4)c3)oc2c1 (stereo not shown) [Example 65, 5-ethyl-6-{2-[3-(pyridin-2-ylmethoxy)-phenyl]-benzoxazol-6-yl}-4,5-dihydro-2H-pyridazin-3-one] | 0.426 |
| C=CCC1CC(c2ccc3nc(-c4ccccc4)oc3c2)=NNC1=O (stereo not shown) [Example 7, 4-allyl-6-(2-phenyl-benzoxazol-6-yl)-4,5-dihydro-2H-pyridazin-3-one] | 0.892 |
| O=C1NN=C(c2ccc3nc(-c4ccccc4)oc3c2)C2CCC12 (stereo not shown) [Example 10, 5-(2-phenyl-benzoxazol-6-yl)-3,4-diaza-bicyclo[4.2.0]oct-4-en-2-one] | 0.365 |
| CC[C@@H]1OC(=O)NN=C1N1CCc2nc(-c3ccccc3)oc2C1 [Example 207, (S)-6-ethyl-5-(2-phenyl-6,7-dihydro-4H-oxazolo[5,4-c]pyridin-5-yl)-3,6-dihydro-[1.3.4]oxadiazin-2-one] | 0.578 |
| CCC[C@H]1C(=O)NN=C(c2ccc3nc(-c4ccco4)oc3c2)[C@@H]1C [Example 188, trans-6-(2-uran-2-yl-benzoxazol-6-yl)-5-methyl-4-propyl-4,5-dihydro-2H-pyridazin-3-one] | 0.083 |
| CCC1CC(=O)NN=C1c1ccc2nc(-c3ccc(OC)c(F)c3)oc2c1 (stereo not shown) [Example 98, 5-ethyl-6-[2-(3-fluoro-4-methoxy-phenyl)-benzoxazol-6-yl]-4,5-dihydro-2H-pyridazin-3-one] | 0.294 |
| CCC1CC(=O)NN=C1c1ccc2nc(-c3cccc(OCCCN4CCCCC4)c3)oc2c1 (stereo not shown) [Example 152, 5-ethyl-6-{2-[3-(3-piperidin-1-yl-propoxy)-phenyl]-benzoxazol-6-yl}-4,5-dihydro-2H-pyridazin-3-one] | 1.07 |
| O=C1CCC(c2ccc3nc(-c4cccs4)oc3c2)=NN1 [Example 111, 6-(2-thiophen-2-yl-benzoxazol-6-yl)-4,5-dihydro-2H-pyridazin-3-one] | 0.967 |
| CC[C@@H]1CC(=O)NN=C1N1CCc2nc(-c3ccccc3)oc2C1 [Example 202, (5R)-5-ethyl-6-{2-phenyl-4H,5H,6H,7H-pyrido[4.3-d][1.3]oxazol-5-yl}-2,3,4,5-tetrahydropyridazin-3-one] | 0.133 |
| CCCC1CC(c2ccc3nc(-c4ccccc4)oc3c2)=NNC1=O (stereo not shown) [Example 9, 6-(2-phenyl-benzoxazol-6-yl)-4-propyl-4,5-dihydro-2H-pyridazin-3-one] | 0.834 |
| CCC1CC(=O)NN=C1c1ccc2nc(-c3ccc(F)c(OC)c3)oc2c1 (stereo not shown) [Example 93, 5-ethyl-6-[2-(4-fluoro-3-methoxy-phenyl)-benzoxazol-6-yl]-4,5-dihydro-2H-pyridazin-3-one] | 0.397 |
| C=CCOc1ccc(-c2nc3ccc(C4=NNC(=O)CC4CC)cc3o2)cc1 (stereo not shown) [Example 213, 6-[2-(4-allyloxy-phenyl)-benzoxazol-6-yl]-5-ethyl-4,5-dihydro-2H-pyridazin-3-one] | 0.241 |
| CCC[C@@H]1C(=O)NN=C(c2ccc3nc(-c4ccc(OCCN5C[C@@H](C)O[C@@H](C)C5)cc4)oc3c2)[C@H]1C [Example 223, Trans-6-(2-{4-[2-(2S,6R-dimethyl-morphoin-4-yl)-ethoxy]-phenyl}-benzoxazol-6-yl)-5-methyl-4-propyl-4,5-dihydro-2H-pyridazin-3-one] | 0.046 |
| CCC1CC(=O)NN=C1c1ccc2nc(-c3ccc(O[C@H]4CCC[C@@H]4N4CCCCC4)cc3)oc2c1 (relative stereo) [Example 225, 5-ethyl-6-{2-[4-(trans-2-piperidin-1-yl-cyclopentyloxy)-phenyl]-benzoxazol-6-yl}-4,5-dihydro-2H-pyridazin-3-one] | 0.231 |
| O=C1NCC(c2ccc3nc(-c4ccccc4)oc3c2)=NN1 [Example 143, 6-(2-phenyl-benzoxazol-6-yl)-4,5-dihydro-2H-[1,2,4]triazin-3-one] | 0.397 |
| O=C1CCC(c2ccc3nc(N4CCSCC4)oc3c2)=NN1 [Example 119, 6-(2-thiomorpholin-1-yl-benzoxazol-6-yl)-4,5-dihydro-2H-pyridazin-3-one] | 3.46 |
| CCC1CC(=O)NN=C1c1ccc2nc(-c3ccc(OC[C@@H]4CCCN4C(C)C)cc3)oc2c1 (stereo partly shown) [Example 240, 5-ethyl-6-{2-[4-(1-isopropyl-5-pyrrolidin-2-yl-methoxy)-phenyl]-benzoxazol-6-yl}-4,5-dihydro-2H-pyridazin-3-one] | 0.186 |
| CC[C@@H]1C(c2ccc3nc(-c4ccccc4)oc3c2)=NNC(=O)[C@H]1C (relative stereo) [Example 145, trans-5-ethyl-4-methyl-6-(2-phenyl-benzoxazol-6-yl)-4,5-dihydro-2H-pyridazin-3-one] | 0.209 |
| CCC1CC(=O)NN=C1c1ccc2nc(-c3ccc(OCCC4CCCCC4)cc3)oc2c1 (stereo not shown) [Example 56, 6-{2-[4-(2-cyclohexyl-ethoxy)-phenyl]-benzoxazol-6-yl}-5-ethyl-4,5-dihydro-2H-pyridazin-3-one] | 0.17 |

| SMILES | EC50 [µM] |
| --- | --- |
| O=C1NN=C(C2CCc3nc(-c4ccccc4)oc3C2)C2CC12 (stereo not shown) [Example 130, 5-(2-phenyl-4,5,6,7-tetrahydro-benzoxazol-6-yl)-3,4-diaza-bicyclo[4.1.0]hept-4-en-2-one] | 0.814 |
| CC1CC(=O)NN=C1c1ccc2nc(-c3ccccc3Cl)oc2c1 (stereo not shown) [Example 89, 6-[2-(2-chloro-phenyl)-benzoxazol-6-yl]-5-methyl-4,5-dihydro-2H-pyridazin-3-one] | 0.415 |
| CCC1CC(=O)NN=C1c1ccc2nc(-c3ccc(OCc4nc(C(C)C)no4)cc3)oc2c1 (stereo not shown) [Example 50, 5-ethyl-6-{2-[4-(3-isopropyl-[1,2,4]oxadiazol-5-ylmethoxy)-phenyl]-benzoxazol-6-yl}-4,5-dihydro-2H-pyridazin-3-one] | 0.223 |
| CCC1CC(c2ccc3nc(-c4cccs4)oc3c2)=NNC1=O (stereo not shown) [Example 141, 4-ethyl-6-(2-thiophen-2-yl-benzoxazol-6-yl)-4,5-dihydro-2H-pyridazin-3-one] | 7.33 |
| CCC1CC(=O)NN=C1c1ccc2nc(-c3ccc(OCCN4C[C@H]5CC[C@@H]4C5)cc3)oc2c1 (stereo partly shown) [Example 164, 6-(2-{4-[2-(2-aza-bicyclo[2.2.1]-hept-2-yl)-ethoxy]-phenyl}-benzoxazol-6-yl)-5-ethyl-4,5-dihydro-2H-pyridazin-3-one] | 0.552 |
| CCC1CC(=O)NN=C1c1ccc2nc(-c3ccc(CCc4ccccc4)cc3)oc2c1 (stereo not shown) [Example 76, 5-ethyl-6-[2-(4-phenethyl-phenyl)-benzoxazol-6-yl]-4,5-dihydro-2H-pyridazin-3-one] | 0.245 |
| CCC1CC(=O)NN=C1c1ccc2nc(-c3ccc(OC(C)(C)CN4CCOCC4)cc3)oc2c1 (stereo not shown) [Example 231, 6-{2-[4-(1,1-dimethyl-2-morpholin-4-yl-ethoxy)-phenyl]-benzoxazol-6-yl}-5-ethyl-4,5-dihydro-2H-pyridazin-3-one] | 0.12 |
| CCC[C@@H]1C(=O)NN=C(c2ccc3nc(-c4ccc(OCCN(C(C)C)C(C)C)cc4)oc3c2)[C@H]1C (relative stereo) [Example 170, trans-6-{2-[4-(2-diisopropylamino-ethoxy)-phenyl]-benzoxazol-6-yl}-5-methyl-4-propyl-4,5-dihydro-2H-pyridazin-3-one] | 0.053 |
| CC[C@H]1CC(=O)NN=C1c1ccc2nc(-c3ccc(OCCN(C(C)C)C(C)C)cc3)oc2c1 [Example 258, (S)-6-{2-[4-(2-diisopropylamino-ethoxy)-phenyl]-benzoxazol-6-yl}-5-ethyl-4,5-dihydro-2H-pyridazin-3-one] | 0.605 |
| CC1CC(=O)NN=C1c1ccc2nc(-c3cccc(CN)c3)oc2c1 (stereo not shown) [Example 125, 6-{2-[3-(aminomethyl)phenyl]1,3-benzoxazol-6-yl}-5-methyl-2,3,4,5-tetrahydropyridazin-3-one] | 1.6 |
| CCC1CC(=O)NN=C1c1ccc2nc(-c3cccc(OCCN(CC(C)C)CC(C)C)c3)oc2c1 (stereo not shown) [Example 156, 6-{2-[3-(2-diisobutylamino-ethoxy)-phenyl]-benzoxazol-6-yl}-5-ethyl-4,5-dihydro-2H-pyridazin-3-one] | 0.248 |
| CCC[C@H]1C(=O)NN=C(c2ccc3nc(-c4ccc(OC(C)C)cc4)oc3c2)[C@@H]1C [Example 260, (4R,5R)-5-methyl-6-{2-[4-(propan-2-yloxy)phenyl]-1,3-benzoxazol-6-yl}-4-propyl-2,3,4,5-tetrahydropyridazin-3-one] | 0.024 |
| CC1CC(=O)NN=C1c1ccc2nc(-c3cccc(O)c3)oc2c1 (stereo not shown) [Example 38, 6-[2-(3-hydroxy-phenyl)-benzoxazol-6-yl]-5-methyl-4,5-dihydro-2H-pyridazin-3-one] | 0.89 |
| CCC1CC(=O)NN=C1c1ccc2nc(-c3ccc(Oc4ccccc4)cc3)oc2c1 (stereo not shown) [Example 95, 5-ethyl-6-[2-(4-phenoxy-phenyl)-benzoxazol-6-yl]-4,5-dihydro-2H-pyridazin-3-one] | 0.067 |
| CCC1CC(=O)NN=C1c1ccc2nc(-c3ccc(OCC(=O)NC)cc3)oc2c1 (stereo not shown) [Example 43, 2-{4-[6-(4-ethyl-6-oxo-1,4,5,6-tetrahydro-pyridazin-3-yl)-benzoxazol-2-yl]-phenoxy}-N-methyl-acetamide] | 1.07 |
| CCC1CC(=O)NN=C1c1ccc2nc(-c3ccc(OCC4CCN(S(C)(=O)=O)CC4)cc3)oc2c1 (stereo not shown) [Example 74, 5-ethyl-6-{2-[4-(1-methanesulphonyl-piperidin-4-ylmethoxy)-phenyl]-benzoxazol-6-yl}-4,5-dihydro-2H-pyridazin-3-one] | 0.24 |
| CC[C@@H]1CC(=O)NN=C1c1ccc2nc(-c3ccc(OC)cc3)oc2c1 [Example 190, (5R)-5-ethyl-6-[2-(4-methoxyphenyl)-1,3-benzoxazol-6-yl]-2,3,4,5-tetrahydropyridazin-3-one] | 0.079 |
| CCC1CC(=O)NN=C1c1ccc2nc(-c3ccc(O)cc3)oc2c1 (stereo not shown) [Example 37, 5-ethyl-6-[2-(4-hydroxy-phenyl)-benzoxazol-6-yl]-4,5-dihydro-2H-pyridazin-3-one] | 0.636 |

From patent publication US8772323B2, “Benzoxazole- and tetrahydrobenzoxazole-substituted pyridazinones as GPR119 agonists” (Boehringer Ingelheim International GmbH, priority 2010, dated 2014)
